# Substitutions are numbered along the chain they refer to. Read-outs that look alike come from different tables or passages of the source.
# Assays:
# [1] = target: T1, IDH2 WT (Homo sapiens, UniProt P48735); test: Wild type IDH2 enzyme assay, diaphorase/resazurin coupled
# T1 sequence (P48735 40-452): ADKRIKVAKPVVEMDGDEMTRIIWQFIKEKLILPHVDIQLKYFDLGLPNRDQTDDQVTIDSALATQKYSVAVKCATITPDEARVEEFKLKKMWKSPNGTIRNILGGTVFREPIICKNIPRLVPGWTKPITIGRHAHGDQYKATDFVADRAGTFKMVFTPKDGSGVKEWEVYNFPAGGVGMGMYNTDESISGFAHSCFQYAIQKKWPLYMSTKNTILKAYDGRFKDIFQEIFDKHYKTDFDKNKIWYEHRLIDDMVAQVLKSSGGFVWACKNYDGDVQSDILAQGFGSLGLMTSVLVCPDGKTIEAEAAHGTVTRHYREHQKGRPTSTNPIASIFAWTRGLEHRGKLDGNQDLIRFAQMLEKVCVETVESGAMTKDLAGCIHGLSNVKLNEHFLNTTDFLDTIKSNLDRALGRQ
# [2] = target: T2, R172Q mIDH2 (Homo sapiens, UniProt P48735, R172Q); test: mIDH2-R172Q enzyme assay (Reaction Biology), diaphorase/resazurin coupled; conditions: for Emax: read-out: IDH2 R172Q % EMax
# T2 sequence (P48735 40-452 R172Q): T1 sequence (P48735 40-452) with R133Q
# [3] = Microsomal metabolic stability, human; format: in vitro ADME; conditions: pH 7.4; human liver microsomes
# [4] = in vitro; conditions: human, Caco-2
# [5] = Microsomal metabolic stability, rat; format: in vitro ADME; conditions: pH 7.4; rat liver microsomes
# [6] = High-throughput kinetic solubility (µSOL), pH 7.4; format: physicochemical; conditions: aqueous solution pH 7.4, pH 7.4, aqueous buffer, kinetic from dmso stock; read-out: HT Kinetic Solubility, Solubility
# Procedure: High-Throughput kinetic solubility test assay
# Pion’s patented µSOL assay for kinetic solubility determination was used. In this assay, the classical saturation shake- flask solub ility method was adapted to a 96-well microtiter plate format and a co-solvent method with n- propanol as the […] was utilized. Test compounds were prepared in 10 mM DMSO solutions (45 µ L), and diluted with the co-solve nt to a final drug conce ntration of […]
# Samples are incubated at room temperature for 6 hrs t o achieve equilibrium. The samples were then filtered to remove any precipitate formed. The concentrat ion of the compound in the filtrate was measured by UV ab sorbance. […]
# used for quantitation of unknown drug concent ration in filtrate. Spectroscopically pure 1- Propanol was used as acosolvent to suppress precipitation in the reference
# [7] = High-throughput PAMPA (GIT), pH 7.4; format: in vitro ADME; conditions: read-out: HT PAMPA Permeability
# Source text: In Vitro Physicochemical and Drug Metabolism Studies:
# High-Throughput PAMPA assay
# The stirring double- sin k PAMPA method patented by pION Inc. (Billeri ca, MA) was employed to determine the permeability of compounds via PAMPA passive diffusion. The PAMPA lipid membrane consisted of an artificial membrane of a proprietary lipid mixture and dodecane (Pion Inc.), optimized to predict gastrointestinal tract (GIT) passive diffusion permeability, was immobilized on a plastic matrix of a 96 well “donor” filter plate placed above a 96 well “a cceptor” plate. A pH 7.4 solution was used in both donor and acceptor wells. The test articles, stocked in 10 mM DMSO solutions, were diluted to 0.05 mM in aqueous buffer (pH 7.4) , and the concentration of DMSO was 0.5% in the final solution. During the 30-min permeation period at room temperature, the test samples in the donor compartment were stirred using the Gutbox te chnology (Pion Inc.) to reduce the unstirred water layer. The test article concentrations in the donor and acceptor compartments were measured using an UV plate reader (Nano Quant, Infinite 200 […]
# PRO, Tecan Inc., Männedorf, Switzerland). Permeability calculations were performed using Pion Inc. software and were expressed in units of 10-6 cm/s. […]
# [8] = Microsomal metabolic stability, mouse; format: in vitro ADME; conditions: pH 7.4; mouse liver microsomes
# [9] = system: human hepatocytes; test: Human hepatocyte cytotoxicity (CellTiter-Glo, 72 hr); conditions: Homo sapiens, Hepatocyte, read-out: Human Hepatocytes EC50
# [10] = as above; conditions: both, human, cryopreserved human hepatocytes
# [11] = target: T3, hERG channel (Homo sapiens, UniProt Q12809); test: hERG FluxOR-based thallium flux assay; format: cell-based; conditions: In Vitro Toxicity
# T3 construct: host or cells: U2OS cells (ATCC)
# [12] = target: IDH1 WT (Homo sapiens, UniProt O75874); test: Wild type IDH1 enzyme assay, diaphorase/resazurin coupled; conditions: for Emax: read-out: IDH1 WT % EMax
# [13] = Human plasma protein binding (rapid equilibrium dialysis, Cyprotex); format: in vitro ADME; conditions: for fraction unbound at 4 h, 5 µM: human, plasma, human plasma
# [14] = system: RBE (R132S) 3D cellular spheroids; test: 2-HG production, spheroids (3D), RBE; format: cell-based; conditions: Homo sapiens; 3D spheroid, mass spec
# Source text: (§1) To evaluate the effect of mIDH1 inhibitors in more relevant models of solid tumors, we adapted a 3-dimensional (3D) multicellular tumor spheroid assay to monitor spheroid formation and 2-HG production. Small molecules can have diminished efficacy in multicellular tumor spheroid models due to limited penetration and the heterogeneous nature of the 3D tumor spheroid[39],[40]. We began by testing the 6 aforementioned cell lines for their ability to form spheroids in ultra-low attachment plates at varying cell concentrations (1000–5000 cells/well). […] Overall, spheroids produced less extracellular 2-HG than cells cultured in monolayer (Fig. 7B).
# (§2) Using these simple 3D models of solid tumors, we assessed the ability of inhibitors to reduce 2-HG production.
# (§3) 2-HG production: Cells grown as spheroids (3D)
# (§4) (RBE) cells/well/150 μ L to form spheroids. Of note, we were not able to obtain spheroids using SNU1079 cells. Plates were sealed with gas permeable membranes, centrifuged at 40 rcf for 1 min, and incubated at 37°C, 5% CO2, 90% RH for 96 (HT108 0, U87 and JJ01 2) or 4 8 (RBE) h r. Cells were washed (by remo ving 10 0 μL of exhausted media and re placing it with 100 μL of growth media, twice) and treated with 50 μL of a solution of media containing the indicated compounds. Each compound was tested as an 8-point dilution series ranging from 5 μM to 2.3 nM.
# (§5) After 96 hr of t reatment, 100 μL of the exhausted media was collected and snap frozen on dry ice. Samples were analyzed by LC -MS for 2- HG concentrations using Rapidfire /Mass Spectrometry (Quintara) ( 4) . Plates were first imaged on the Celigo Imaging Cytometer (Ne xcelom Bioscience) to quantify area of each spheroid. Cell viability was subsequently measured using the CellTiter-Glo assay with some modifications: 50 μL of a solution of CellTiter-Glo reagent containing a final concentration of 0.025 % Trypsin (Thermo Sci entific) was added to each well and plates were shaken at 500 rpm for 30 min before reading.
# [15] = system: JJ012 (R132G) cells; test: 2-HG production, monolayer (2D), mass spectrometry, JJ012; format: cell-based; conditions: Homo sapiens, mass spec; for Emax: read-out: 2D Cellular 2HG Production (Mass Spec) JJ012 (R132G) % EMax; for EC50: read-out: 2D Cellular 2HG Production (Mass Spec) JJ012 (R132G) EC50
# Procedure: (§6) (Supplementary Table 2). Inhibition of the target was assessed by quantitative measurement of 2-HG levels in extracellular media of monolayer (or 2-dimentional, 2D) cultures following incubation (48 hrs) with inhibitors. […]
# (§7) treated 96-well plates (Corning) at a density of 8000 cells/well/100 μL . Plates were sealed with gas permeable membranes (Research Products International Corp.) and incubated at 37°C, 5% CO2, 90% RH for 24 hr. Growth media was subsequently aspirated and replaced with 100 μL of a solution of growth media cont aining either vehicle DMSO or indicated mIDH1 inhibitor. Each compound was tested as an 8-point dilution series ranging from 5 μM to 2.3 nM. After 48 hr treatment, 75 μL of the exhausted media was collected and snap frozen on dry ice. Samples were analyzed by LC-MS for 2- HG concentrations using Rapidfire / Mass Spectrometry (Quintara) (4) . Remaining cells were assessed for viability by adding 100 μL of fresh media and 50 μL of CellTiter-Glo reagent (Promega) as per manufacturer instructions. Luminescence was read using a Vi ewLux High-throu ghpu t CCD imager (PerkinElmer) equipped with clear filters.
# [16] = system: RBE (R132S) cells; test: 2-HG production, monolayer (2D), mass spectrometry, RBE; format: cell-based; conditions: Homo sapiens, mass spec; for Emax: read-out: 2D Cellular 2HG Production (Mass Spec) RBE (R132S) % EMax; for EC50: read-out: 2D Cellular 2HG Production (Mass Spec) RBE (R132S) EC50
# Procedure: as §6, §7
# [17] = system: JJ012 (R132G) 3D cellular spheroids; test: 2-HG production, spheroids (3D), JJ012; format: cell-based; conditions: Homo sapiens; 3D spheroid, mass spec
# Source text: as §1, §2, §3, §4, §5
# Sequence of IDH1 WT (O75874 whole entry): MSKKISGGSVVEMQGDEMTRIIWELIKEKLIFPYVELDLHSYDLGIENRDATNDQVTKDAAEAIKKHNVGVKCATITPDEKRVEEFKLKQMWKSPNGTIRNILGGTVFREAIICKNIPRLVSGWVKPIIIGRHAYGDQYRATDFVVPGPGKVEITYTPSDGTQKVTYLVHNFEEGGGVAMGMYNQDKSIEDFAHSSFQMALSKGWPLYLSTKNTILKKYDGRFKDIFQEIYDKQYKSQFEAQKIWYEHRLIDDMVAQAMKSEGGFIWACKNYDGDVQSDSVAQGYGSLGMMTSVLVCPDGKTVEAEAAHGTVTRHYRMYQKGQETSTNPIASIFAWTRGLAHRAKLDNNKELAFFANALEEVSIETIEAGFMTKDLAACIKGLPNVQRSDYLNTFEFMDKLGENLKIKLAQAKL
# T3 sequence (Q12809 whole entry): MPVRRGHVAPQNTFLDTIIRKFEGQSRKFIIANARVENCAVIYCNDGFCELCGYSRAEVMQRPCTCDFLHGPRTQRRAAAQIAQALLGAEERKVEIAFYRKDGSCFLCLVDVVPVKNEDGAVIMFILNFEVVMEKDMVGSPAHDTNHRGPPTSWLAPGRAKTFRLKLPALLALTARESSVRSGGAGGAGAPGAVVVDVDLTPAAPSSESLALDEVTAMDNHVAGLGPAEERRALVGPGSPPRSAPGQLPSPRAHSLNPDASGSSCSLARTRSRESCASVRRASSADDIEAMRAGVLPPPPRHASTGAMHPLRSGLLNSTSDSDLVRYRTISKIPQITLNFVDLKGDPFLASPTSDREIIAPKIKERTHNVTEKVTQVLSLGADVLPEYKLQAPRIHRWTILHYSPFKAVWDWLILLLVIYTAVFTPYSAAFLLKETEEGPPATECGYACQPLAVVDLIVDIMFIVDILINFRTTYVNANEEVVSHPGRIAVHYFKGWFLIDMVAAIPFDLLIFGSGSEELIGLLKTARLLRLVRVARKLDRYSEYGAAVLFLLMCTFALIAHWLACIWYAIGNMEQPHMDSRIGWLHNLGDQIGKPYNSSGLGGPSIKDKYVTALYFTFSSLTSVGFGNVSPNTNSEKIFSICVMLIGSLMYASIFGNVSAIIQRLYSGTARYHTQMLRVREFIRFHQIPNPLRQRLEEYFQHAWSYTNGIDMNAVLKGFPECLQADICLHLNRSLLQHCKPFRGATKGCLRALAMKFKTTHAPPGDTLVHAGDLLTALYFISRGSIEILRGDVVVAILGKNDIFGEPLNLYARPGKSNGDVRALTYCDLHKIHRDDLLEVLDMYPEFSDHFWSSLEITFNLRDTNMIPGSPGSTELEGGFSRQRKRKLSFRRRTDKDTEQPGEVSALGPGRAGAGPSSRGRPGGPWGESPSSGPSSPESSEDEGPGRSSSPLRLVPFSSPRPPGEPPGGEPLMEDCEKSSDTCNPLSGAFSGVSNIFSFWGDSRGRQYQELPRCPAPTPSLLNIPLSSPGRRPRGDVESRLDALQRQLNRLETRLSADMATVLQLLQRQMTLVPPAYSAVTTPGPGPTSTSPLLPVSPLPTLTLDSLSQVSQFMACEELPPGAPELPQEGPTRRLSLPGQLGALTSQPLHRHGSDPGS
structure (smiles),measurement,setting,value
"CC(C)(O)CNc1nc(Nc2ccnc(C(F)(F)F)c2)nc(-c2cccc(C(F)(F)F)n2)n1 [AG-221, Enasidenib]",EC50,[1],> 30 µM
same,Emax,[1]; read-out: IDH2 % EMax,83.4%
same,EC50,[2],0.044 µM
same,IC50,[2],0.065 µM
same,Emax,[2],87.2%
same,half-life at 1 µM,[3],> 2 h
same,"Papp A→B at 2 h, 10 µM",[4],94.1 nm/s
same,"Papp B→A at 2 h, 10 µM",[4],238 nm/s
same,"efflux ratio at 2 h, 10 µM",[4],2.54
same,half-life at 1 µM,[5],> 2 h
same,solubility kinetic at 6 h,[6],14.2 µM
same,"Papp at 30 min, 0.05 mM",[7],13100 nm/s
same,half-life at 1 µM,[8],> 2 h
same,EC50,[9],18.4 µM
same,Emax at 72 h,[10],84.8%
same,EC50,[11],> 30 µM
same,Emax,"[11]; human, U2OS cells transduced with hERG-BacMam virus",33.2%
same,EC50,"[12]; IDH1 WT EC50, Biochemical",15.1 µM
same,Emax,[12],57.7%
same,"fraction unbound at 4 h, 5 µM",[13]; read-out: Human Plasma Protein Binding % Bound (converted),0.006
same,"fraction unbound at 4 h, 5 µM",[13]; read-out: Human Plasma Protein Binding % Unbound,0.00637
CC(C)[C@H]1COC(=O)N1c1ccnc(N[C@@H](C)c2ccc(CN3CCC(F)(F)CC3)cc2)n1 [Novartis 224],EC50,[14],0.412 µM
same,Emax,[14],86.3%
same,EC50,[1],> 30 µM
same,Emax,[1]; read-out: IDH2 WT % EMax,19.4 ± 11.4%
same,EC50,[2],> 30 µM
same,Emax,[2],3.4%
same,Emax,[15],68%
same,EC50,[15],0.121 µM
same,Emax,[16],109%
same,EC50,[16],0.221 µM
same,EC50,[17],0.098 µM
same,Emax,[17],87.2%
CC(C)[C@H]1COC(=O)N1c1ccnc(N[C@@H](C)c2ccc(C(=O)NC3CCCC3)c(Cl)c2)n1 [Novartis 530],EC50,[14],0.571 µM
same,Emax,[14],86.9%
same,EC50,[1],> 30 µM
same,Emax,[1]; read-out: IDH2 WT % EMax,17.3 ± 4.4%
same,EC50,[2],> 30 µM
same,Emax,[2],3.9%
same,Emax,[15],70.5%
same,EC50,[15],0.076 µM
same,Emax,[16],88.2%
same,EC50,[16],0.078 µM
same,EC50,[17],0.069 µM
same,Emax,[17],92.4%
same,EC50,"[12]; IDH1 WT EC50, Biochemical",3.5 µM
same,EC50,"[12]; IDH1 WT EC50, purified enzyme",3.51 ± 0.17 µM
same,Emax,[12],102 ± 5.8%
CC(=O)N1CCN(Cc2ccc([C@H](C)Nc3nccc(N4C(=O)OC[C@@H]4C(C)C)n3)cc2)CC1 [Novartis 556],EC50,[1],> 30 µM
same,Emax,[1]; read-out: IDH2 WT % EMax,20.7 ± 5.4%
same,EC50,"[12]; IDH1 WT EC50, purified enzyme",10.5 ± 1.01 µM
same,Emax,[12],90 ± 7.4%
same,unbound fraction in human plasma,[13]; 5 µM,~ 10 % unbound
CC(C)(C)CC(C)(C)c1cc(Cn2ccnc2)c(O)c(Cn2ccnc2)c1 [Sanofi 1],EC50,[14],> 30 µM
same,Emax,[14],47.3%
same,EC50,[1],> 30 µM
same,Emax,[1]; read-out: IDH2 % EMax,26.7%
same,Emax,[1]; read-out: IDH2 WT % EMax,19.9 ± 8%
same,EC50,[2],> 30 µM
same,Emax,[2],3.2%
same,Emax,[15],28.8%
same,EC50,[15],> 30 µM
same,Emax,[16],29.3%
same,EC50,[16],> 30 µM
same,EC50,[17],> 30 µM
same,Emax,[17],35.3%
same,Emax,[12],18.8 ± 2.2%

# Reference: paper PMC5630632, “Assessing inhibitors of mutant isocitrate dehydrogenase using a suite of pre-clinical discovery assays” (Scientific Reports, 2017)
